Results published in US20170042929A9, “Methods of Treating Neurological Diseases” (priority 2012, published 2017).
“Also recorded” adds a separate entry of the source.

How the values were obtained:
[1] = test system: hippocampal area CA1 of HET (SCN1A mSMEI) tissue; test: Evoked fEPSP extracellular recordings in hippocampal slices, Schaeffer collateral stimulation (single pulse and 40 Hz trains); type: cell-based, mouse; conditions: for population spike evoked by very low stimulation intensity: HET CA1; for fEPSP amplitude / synaptic excitability in HET tissue: HET hippocampus, ten pulse 40 Hz stimulation
Procedure: (§1) Mice (P16-22) were anesthetized with isofluorane, decapitated, and the brains immediately removed. Transverse hippocampal sections (350 μm thickness) were cut in cold dissection solution (in mM: 2.6 KCl, 1.23 NaH2PO4, 24 NaHCO3, 0.1 CaCl2, 2 MgCl2, 205 sucrose, and 10 glucose) using a vibratome and were incubated for half an hour in normal artificial cerebrospinal fluid (ACSF; pH 7.3, 30° C.) containing (in mM) 130 NaCl, 1.2 MgSO4, 3.5 KCl, 1.2 CaCl2, 10 glucose, 2.5 NaH2PO4, 24 NaHCO3 aerated with 95% O2-5% CO2. After the incubation, slices were stained with Di-4ANNEPS (final dye concentration is 0.05 mg/ml) and left to recover for an additional hour at 30° C. (23). The slices were transferred to a submersion recording chamber (Warner Instr.) and continuously perfused (2 ml/min, at 30° C.) with the oxygenated ACSF.
(§2) To characterize excitatory neural circuit activity, stimulating electrodes (concentric bipolar metal electrodes, 200 μm in diameter (FHC)) were placed on the Shaffer collaterals. fEPSP recordings were performed in hippocampal slices concurrently with the VSDI (FIGS. 1A-1E). Extracellular recording electrodes ([…], 0.9% saline) were placed in the CA1 radiatum layer. To monitor Di-4ANNEPS signals, the slices were illuminated either with Halogen (150 W; excitation 522-550 nm; emission—580 nm; dichroic—565 nm).
Input-output (I-O) characteristics of fEPSPs were calculated using the same intensities of stimulation and incrementally (0.05 mA) raising them until the maximal responses or population spikes were obtained. 1-0 calculations were performed in stained and unstained slices to rule out a possible modulation of Di-4ANEPPS on GABA receptors (24). The responses from stained and unstained slices were not statistically different and were pooled together for the final analysis.
(§3) To elicit short-term synaptic plasticity, Schaeffer collaterals were stimulated at 40 Hz frequency using 10 pulse (0.2 msec) trains. 40 Hz falls within the gamma frequency range and stimulation was repeated every 15 seconds with stimulus amplitude was set at the half of maximal fEPSP amplitude. fEPSP and VSDI optical data trials were synchronized.
To modulate hippocampal hyperexcitability A1R agonist N6-cyclopentyladenosine (CPA) was used. N6-cyclopentyladenosine dissolved in DMSO was added to the bath ACSF solution. N6-cyclopentyladenosine took effect within 2 minutes of its application. 10 and 1 μM and 500, 100, 50, and 10 nM concentrations of CPA were tested. Since N6-cyclopentyladenosine acts through G-protein linked mechanisms, the washout of N6-cyclopentyladenosine was not possible in the current experiments. […] A1R […] DPCPX concentration was 200 nM. All drugs and dye were obtained from Sigma-Aldrich.

[2] = test system: hippocampal CA1 circuit of HET (SCN1A mSMEI) tissue; test: Voltage-sensitive dye imaging (VSDI) of evoked neural activity propagation, FWHM; type: cell-based, mouse; conditions: for abnormally wide circuit excitation, neural activity map (dF/Fmax) / spatial extent of neural signal propagation: 50 nM CPA; for abnormally wide circuit excitation, neural activity map (dF/Fmax): HET animal P19; for spatial extent of neural signal propagation: HET tissue
Procedure: as §1
A combination of in vitro electrophysiology (extracellular field potential recording and whole-cell patch clamp recordings) and fast voltage-sensitive dye imaging (VSDI) was used. All electrical recordings were performed using MCC 700 amplifiers (Axon Instruments). Electrical data was acquired at 4 KHz, digitized at 10 KHz using a Digidata DAC board and pClamp software. Optical data were recorded at 250 Hz with MiCam 02 (192×126 pixels, SciMedia USA).
as §2, §3
Optical and electrical data were analyzed using Brain Vision and pClamp softwares. To increase signal to noise ratio, data analysis in individual slices and during pharmacological manipulations was performed on the averages of fifteen files (electrical and optical). Standard electrophysiological analysis techniques were used to analyze fEPSP, EPSC, and IPSC characteristics. For optical analysis, 1060 msec of data were fitted with an approximately Gaussian curve (25) and full width at half maximal (FWHM) values over the distance of 950 micrometers from the stimulating electrode toward subicullum were calculated using BrainVision (SciMedia). FWHM here quantifies distance of neuronal signal propagation (or decay). FWHM calculations along the orthodromic neural activity propagation trajectory included 15 frames before and 194 frames after the 40 Hz train stimulation, and was spanning over the evoked signal as shown in FIGS. 4A-4D. All results are reported as grouped averages with standard error of the mean. Results from WT and HET, or treated versus untreated groups were compared using unpaired and paired t-tests, respectfully. A p<0.05 was regarded as statistically significant value.

[3] = test system: isolated mouse hippocampus; test: Febrile seizure-like events (FSLE) in hyperthermia, extracellular recording in isolated hippocampus; type: cell-based; conditions: CPA added immediately after the first FSLE, P18 isolated hippocampus
Procedure: FIG. 9A: unfiltered extracellular recording traces (DC mode) of the typical repeated FSLEs in P18 isolated mouse hippocampus. […] Immediately after that CPA was added.
Febrile seizure-like events (FSLE) emerge and terminate as sub-threshold bursts under conditions of hyperthermia at a temperature of about 39° C. in (FIGS. 6A-6C) while spontaneous inhibitory postsynaptic currents (IPSCs) evident at 32° C. (FIG. 6D) gradually diminish as the temperature increases (FIG. 6E). In hippocampal slices FSLEs emerged on the average at 38.5° C. in tissue from HET mice and at 40.5° C. in tissue from WT mice (FIGS. 7A-7B) where the FSLE durations was almost twice as long in HET tissue (FIG. 7C).

SMEI mice (SCN1A HET) [4] = test: Acute CPA treatment, hyperthermia-induced seizures in vivo; design: species or system mouse
Procedure: (§4) The model of SMEI used in these studies is caused by a knock-in nonsense substitution (CgG to TgA in exon 21) made within a loop between segments 5 and 6. Transgenic mice were provided by Drs. K. Yamakawa and I. Ogiwara (RIKEN, Japan (14)). All of the experiments on the mice (C57BL/6/129) involved in this project were performed in accordance with animal protocols approved by the Institutional Animal Care and Use Committee of the University of Houston. Heterozygous (HET) and wild-type (WT) mice were used.

SMEI mice (SCN1A HET) [5] = test: Chronic CPA treatment (P11-P20), hyperthermia-induced seizures in vivo; design: species or system mouse
Procedure: as §4
The A1R agonist CPA has an acute effect on the control of hyperexcitable neural network, hyperthermia-induced seizure in vitro and in vivo. To investigate if the chronic treatment of mSMEI with CPA can have long-term effects on the rewiring of the neural circuit and FS threshold activity, CPA was injected into the SMEI mice twice a day for continuous 10 days during the critical activity-dependent period of development (P11-P20), and the effects were determined 24 hours and 10 days after the last injection.

[6] = test system: CA1 pyramidal cells of HET SMEI mice; test: sEPSC and sIPSC whole-cell recordings after repeated CPA treatment; type: in vivo, mouse; conditions: repeated CPA treatment P11-P20, HET+CPA vs HET+vehicle
Procedure: For electrical whole-cell voltage-clamp recordings, borosilicate glass micropipettes (4-7 MΩ) were used containing (in mM): 116 Cesium gluconate, 6 KCl, 0.5 EGTA, 20 HEPES, 10 phosphocreatine, 0.3 NaGTP, 2 NaCl, 4 MgATP, and 0.3% Neurobiotin (pH 7.25, 295 mOsm) and 5 mM QX-314 (fast voltage-gated conductance blocker). Spontaneous inhibitory postsynaptic currents (IPSCs) and EPSCs were recorded in CA1 pyramidal cells. sIPSCs were recorded at −80 mV in the presence of APV (100 μM) and CNQX (40 μM). sEPSCs were recorded at −70 mV in the presence of inhibitory synaptic transmission blocker picrotoxin (50 μM). Amplitude and frequency of sEPSCs and sIPSCs were measured and compared between WT and HET. For IPSC calculations, activity was studied in three 20 second segments (twenty seconds apart) for each cell (N=8 HET, 6WT). Since EPSCs have lower frequency, two minute long segments were used for their analysis (N=6). Cumulative distribution of the amplitudes and inter-event interval (frequency) were plotted in Prism software. t-test analysis was used to compare IPSCs and EPSCs in HET and WT tissue. All recordings were performed at 32° C. temperature. […]

SMEI seizures = conditions: previously tested; cited from earlier work
[7] = 50 nM CPA, listed as N6-cyclopentyladenosine

For `OC[C@H]1O[C@@H](n2cnc3c(NC4CCCC4)ncnc32)[C@H](O)[C@@H]1O` [CPA, N6-cyclopentyladenosine], the “population spike evoked by very low stimulation intensity” value ([1]; 50 nM CPA) was “reduced this spike into a field EPSP response”, the “population spike evoked by very low stimulation intensity” value [1, 7] was “reduced this spike into a fEPSP response; also recorded: effectively reduced this exaggerated response into fEPSP” and the “fEPSP amplitude / synaptic excitability in HET tissue” value ([1]; 50 nM CPA) was “significantly reduced fEPSP; also recorded: significantly reduced hippocampal circuit hyperexcitability without blocking excitatory synaptic transmission”. The “fEPSP amplitude / synaptic excitability in HET tissue” value [1, 7] was “significantly reduced fEPSP trains; also recorded: significantly reducing synaptic excitability in HET tissues, without blocking synaptic transmission”, the “short-term plasticity (STP), fEPSP amplitude ratios pulses #2-10 to #1” value ([1]; 50 nM CPA, HET vs HET+CPA, 40 Hz train) was “effected the short-term plasticity; also recorded: all statistically different” and the fEPSPs ([1]; 1 μM N6-cyclopentyladenosine in bath ACSF) was “completely eliminated fEPSPs”. For the same compound, the fEPSPs ([1]; 10 μM N6-cyclopentyladenosine in bath ACSF) was “completely eliminated fEPSPs”, the “time until N6-cyclopentyladenosine took effect after its application” value ([1]; bath application in ACSF) was no more than 2 min and the “abnormally wide circuit excitation, neural activity map (dF/Fmax)” value [2] was “reduced significantly; also recorded: reduced the abnormally wide circuit excitation”. The “abnormally wide circuit excitation, neural activity map (dF/Fmax)” value ([2]; listed as N6-cyclopentyladenosine) was “abnormally wide CA1 circuit activation was confined; also recorded: reduced the abnormally wide circuit excitation”, the “spatial extent of neural signal propagation” value ([2]; 40 Hz train) was “significantly reduced the spatial extent of neural signal propagation” and the “spatial extent of neural signal propagation” value ([2]; 40 Hz train, listed as N6-cyclopentyladenosine) was “significantly reduced the spatial extent of neural signal propagation; also recorded: reduced propagation of the evoked signal”. The “FWHM, spread of the evoked activity” value ([2]; HET slices + 50 nM CPA, 40 Hz train, untreated HET 591±106 μm, N=6 slices) was 491±106 μm, the “epileptogenic activity (repeated FSLEs) in hyperthermia” value [3] was “blocked epileptogenic activity in hyperthermia; also recorded: no repetitive FSLEs formed” and the seizure duration (SMEI mice (SCN1A HET) [4]; acute CPA 15 minutes before hyperthermia, vehicle 5.91±1.17 min) was 2.26 ± 0.43 min. The seizure latency (SMEI mice (SCN1A HET) [4]; acute CPA 15 minutes before hyperthermia, vehicle 8.19±0.95 min) was 11.68 ± 0.70 min, the seizure duration (SMEI mice (SCN1A HET) [4]; acute CPA i.p. 15 minutes prior, HET+saline 5.91±1.17 (figure legend)) was 2.26±0.43 and the seizure latency (SMEI mice (SCN1A HET) [4]; acute CPA i.p. 15 minutes prior, HET+saline 8.19±0.95 (figure legend)) was 11.68±0.70. For the same compound, the seizure incidence (SMEI mice (SCN1A HET) [5]; chronic CPA twice a day P11-P20, 24 hours after the last treatment, vehicle 83.3%) was 53%, the seizure incidence (SMEI mice (SCN1A HET) [5]; chronic CPA twice a day P11-P20, 10 days after the last treatment, vehicle 75%) was 43% and the seizure duration (SMEI mice (SCN1A HET) [5]; chronic CPA, 24 hours after the last treatment, vehicle 3.980±0.6651) was 1.424±0.6904. For the same compound, the seizure latency (SMEI mice (SCN1A HET) [5]; chronic CPA, 24 hours after the last treatment, vehicle 8.080±1.772) was 11.25±1.140, the sIPSC amplitude [6] was “does not cause significant change in sIPSCs; also recorded: no significant difference” and the sIPSC interval [6] was “does not cause significant change in sIPSCs; also recorded: no significant difference”.

With `CCCn1c(=O)c2[nH]c(C3CCCC3)nc2n(CCC)c1=O` [DPCPX] the “effect of DPCPX on the CPA-induced decrease of fEPSP amplitude” value ([1]; DPCPX 200 nM added to ACSF with 50 nM CPA) was “prevented N6-cyclopentyladenosine to decrease fEPSP amplitude; also recorded: N6-cyclopentyladenosine was ineffective at reducing fEPSP”.

In the case of `NC(=O)N1c2ccccc2C=Cc2ccccc21` [carbamazepine], the “efficacy against SMEI seizures” value (SMEI seizures) is listed as “none of these agents worked reliably”.

In the case of `Nc1nnc(-c2cccc(Cl)c2Cl)c(N)n1` [lamotrigine], the “efficacy against SMEI seizures” value (SMEI seizures) is listed as “none of these agents worked reliably”.
